Assay results: ChEMBL document CHEMBL5393453, “Compositions and methods of using the same for treatment of neurodegenerative and mitochondrial disease” (2021)
Active and inactive are the calls of the source. No cut-off for these calls is given here.

Columns and labels:
HeLa [1] = experiment: Induction of mitophagy in human HeLa Mito-Keima/YFP-Parkin cells treated with FCCP/oligomycin measured by FACS analysis relative to DMSO; assay type: functional
[2] = Cytotoxicity against human HeLa cells expressing YFP parkin assessed as highest safety dose by DAPI staining analysis; assay type: toxicity, cell-based; settings: read-out: Activity
[3] = Cytotoxicity against human HeLa cells expressing YFP parkin treated with FCCP/ oligomycin assessed as highest safety dose by DAPI staining analysis; assay type: toxicity, cell-based; settings: read-out: Activity
[4] = Therapy index in human HeLa Mito-Keima/YFP-Parkin cells treated with FCCP/oligomycin assessed as mitophagy safety margin by DAPI staining analysis; assay type: toxicity, cell-based; settings: read-out: TI
[5] = tested on: Primary hippocampal neuron; experiment: Protection against PFFs induced alpha-synuclein fibril formation in C57BL/6 mouse derived primary hippocampal neurons assessed as reduction in phosphorylated S129 alpha-synuclein (250-12) level at 0.1 to 25 uM measured after 6 days; assay type: functional, cell-based; settings: dose 0.1-25 µM, time 6.0 day
[6] = tested on: Primary hippocampal neuron; experiment: Protection against PFFs induced alpha-synuclein fibril formation in C57BL/6 mouse derived primary hippocampal neurons assessed as reduction in phosphorylated S129 alpha-synuclein monomer level at 0.1 to 25 uM measured after 6 days; assay type: functional, cell-based; settings: dose 0.1-25 µM, time 6.0 day
[7] = tested on: Primary hippocampal neuron; experiment: Protection against PFFs induced alpha-synuclein fibril formation in C57BL/6 mouse derived primary hippocampal neurons assessed as reduction in phosphorylated S129 alpha-synuclein level at 0.1 to 25 uM measured after 6 days; assay type: functional, cell-based; settings: dose 0.1-25 µM, time 6.0 day
HeLa [8] = experiment: Induction of mitophagy in human HeLa Mito-Keima/YFP-Parkin cells treated with FCCP/oligomycin measured by FACS analysis; assay type: functional, cell-based

FC(F)(F)c1cc2c(N[C@@H]3c4ccccc4CC[C@H]3N3CCOCC3)ncnc2[nH]1 (single isomer, unassigned)
fold change (FC) (HeLa [1]): 7.78

Fc1ccc2c(c1)CC[C@@H](N1CCOCC1)[C@@H]2Nc1ncnc2[nH]c(C(F)(F)F)cc12 (single isomer, unassigned)
MNTC [2]: 25 µM
fold change (FC) (HeLa [1]): 4.67
MNTC [3]: 25 µM

FC(F)(F)c1cc2c(N[C@H]3c4ccccc4CC[C@@H]3N3C[C@H]4COC[C@H]4C3)ncnc2[nH]1 (single isomer, unassigned)
MNTC [2]: 25 µM
fold change (FC) (HeLa [1]): 5.44
MNTC [3]: 2.8 µM

FC(F)(F)c1cc2c(N[C@@H]3c4ccccc4CC[C@@H]3N3CCOCC3)ncnc2[nH]1
selectivity ratio [4]: < 10
MNTC [2]: 16.7 µM

Fc1ccc2c(c1)CC[C@H](N1CCOCC1)[C@H]2Nc1ncnc2[nH]c(C(F)(F)F)cc12 (single isomer, unassigned)
MNTC [2]: 25 µM
fold change (FC) (HeLa [1]): 5.11
MNTC [3]: 8.3 µM

COC1CN([C@@H]2COc3ccccc3[C@H]2Nc2ncnc3[nH]c(C(F)(F)F)cc23)C1
Activity [5]: Active
Activity [6]: Active
MNTC [2]: 25 µM
Activity [7]: Active
MNTC [3]: 21.4 µM

c1ccc2c(c1)OC[C@H](C1CCOCC1)[C@H]2Nc1ncnc2[nH]c(C3CC3)cc12 (single isomer, unassigned)
Activity [5]: Active
Activity [6]: Active
MNTC [2]: 25 µM
Activity [7]: Active
MNTC [3]: 21.5 µM

FC(F)(F)c1cc2c(N[C@@H]3c4ccccc4CC[C@H]3N3CCOCC3)ncnc2[nH]1 (racemic)
MNTC [2]: 13.9 µM
fold change (FC) (HeLa [1]): 9.53

Fc1ccc2c(c1)CC[C@H](N1CCOCC1)[C@H]2Nc1ncnc2[nH]c(C3CC3)cc12 (single isomer, unassigned)
MNTC [2]: 25 µM
fold change (FC) (HeLa [1]): 5.24
MNTC [3]: 2.8 µM

FC(F)(F)c1cc2c(N[C@H]3c4ccccc4CC[C@@H]3N3CC4(CCOCC4)C3)ncnc2[nH]1 (single isomer, unassigned)
fold change (FC) (HeLa [1]): 3.95

COC1CN([C@@H]2CCc3ccccc3[C@H]2Nc2ncnc3[nH]c(C(F)(F)F)cc23)C1
MNTC [2]: 25 µM
EC50 (HeLa [8]): 28.8 µM

COC[C@@H]1CCN([C@H]2COc3ccccc3[C@@H]2Nc2ncnc3[nH]c(C(F)(F)F)cc23)C1 (single isomer, unassigned)
MNTC [2]: 25 µM
MNTC [3]: 3.3 µM

C[C@H]1CN([C@H]2CCc3ccccc3[C@@H]2Nc2ncnc3[nH]c(C(F)(F)F)cc23)CCO1 (single isomer, unassigned)
Activity [5]: Active
Activity [6]: Active
MNTC [2]: 25 µM
Activity [7]: Active
MNTC [3]: 9.1 µM

FC(F)(F)c1cc2c(NC3c4ccccc4OCC3N3C[C@H]4COC[C@@H]4C3)ncnc2[nH]1 (stereo not given in full)
MNTC [2]: 25 µM
MNTC [3]: 25 µM

COC1CN([C@H]2CCc3ccccc3[C@@H]2Nc2ncnc3[nH]c(C(F)(F)F)cc23)C1
Activity [5]: Active
Activity [6]: Active
MNTC [2]: 8.3 µM
Activity [7]: Active
MNTC [3]: 8.3 µM

FC(F)(F)c1cc2c(N[C@H]3c4ccccc4CC[C@@H]3N3CC4(COC4)C3)ncnc2[nH]1
EC50 (HeLa [8]): 0.3 µM

C[C@H]1CN([C@H]2COc3ccccc3[C@@H]2Nc2ncnc3[nH]c(C4CC4)cc23)CCO1
MNTC [2]: 25 µM
MNTC [3]: 15.1 µM

C[C@@H]1CN([C@H]2CCc3ccccc3[C@@H]2Nc2ncnc3[nH]c(C4CC4)cc23)CCO1 (single isomer, unassigned)
MNTC [2]: 25 µM
MNTC [3]: 1.3 µM

COC[C@@H]1CCN(C2COc3ccccc3C2Nc2ncnc3[nH]c(C4CC4)cc23)C1 (single isomer, unassigned)
MNTC [2]: 25 µM
MNTC [3]: 1.4 µM

c1ccc2c(c1)CC[C@H](N1C[C@H]3COC[C@H]3C1)[C@H]2Nc1ncnc2[nH]c(C3CC3)cc12
MNTC [2]: 25 µM
MNTC [3]: 0.9 µM

C[C@@H]1CN([C@@H]2COc3ccccc3[C@H]2Nc2ncnc3[nH]c(C(F)(F)F)cc23)C[C@H](C)O1
MNTC [2]: 25 µM
MNTC [3]: 2.3 µM
